Measurements published in publication PMC3745399, “An NO Donor Approach to Neuroprotective and Procognitive Estrogen Therapy Overcomes Loss of NO Synthase Function and Potentially Thrombotic Risk” (PLoS ONE, 2013).

Tests used:
[1] = test system: Ishikawa endometrial cancer cell line; test: ER-mediated transcriptional activity (antiestrogen) in Ishikawa cells; assay type: cell-based; conditions: read-out: antiestrogen potency IC50, ER-mediated transcriptional activity
[2] = test system: primary cortical neurons exposed to OGD; test: Neuroprotection in oxygen glucose deprivation (OGD), MTT; assay type: cell-based, rat; conditions: for neuroprotection with G15: 100 nM SERM + G15 100 nM (GPR30 antagonist); for neuroprotection with L-NAME: 100 nM SERM + L-NAME 100 µM (NOS antagonist), whether it attenuated neuroprotective activity; for neuroprotection with LY294002: 100 nM SERM + LY294002 10 µM (PI3K inhibitor); for neuroprotection with pertussis toxin: 100 nM SERM + pertussis toxin 100 ng/mL; for neuroprotection (cell survival by MTT): 100 nM, 2 h OGD, 24 h, no blocker, normalized to E2 10 nM (100%) and vehicle (0%)
Procedure: Primary neuronal cultures were subjected to 2 h OGD with compounds added at the start of OGD and inhibitors added 45 min prior to OGD. Cell survival was measured at 24 h.
Primary cultures of dissociated cortical neurons were prepared as follows; briefly, cortices were dissected from E16-18 Sprague-Dawley rats (Charles River). After removal of meninges, cortices were manually dissociated and plated at a density of 10^6 cells/mL into 96-well plates. Twenty-four hours after plating, cultures were grown in Neurobasal A media supplemented with B27, glutamine and pen/strep, with media changes every 3–4 days. In accordance with published protocols, measured levels of glia in culture after DIV2 are <0.5%. Experiments were performed at DIV 11–12.
The cell media was changed to phenol red-free growing media at least 3 h before OGD. Receptor blockers were added 45 min prior to the start of OGD, and SERMs were added at the start of OGD, with concentrations maintained through media changes. For OGD, the cells were transferred to a hypoxia chamber controlled at 5% CO2 and <1% O2, and growth media was replaced with a physiological salt solution (in mM: NaCl 116, CaCl2 1.8, MgSO4 0.8, KCl 5.4, NaHCO3 14.7, NaHPO4 1, HEPES 10, pH = 7.4). After 2 h OGD, cells were removed from the chamber and growth media was replaced. After 24 h, cell viability was measured by MTT assay using a Dynex MRX ll micro-plate spectrophotometer.

[3] = test system: C57Bl/6 mice or eNOS(−/−) mice; test: Step-through passive avoidance (STPA) memory model; assay type: in vivo, mouse; conditions: SERM 2 mg/kg; for reversal of scopolamine-induced memory deficit (STPA latency): scopolamine 1 mg/kg i.p., tested 24 h after training; for reversal of scopolamine-induced memory deficit in eNOS KO mice (STPA): scopolamine 1 mg/kg
Procedure: In this assay, memory is tested 24 h after training and since drugs are only administered during training, any side effects, such as sedation, are highly unlikely to confound the testing results. Furthermore, criteria for training are uniform across all treatment groups. Previously, we have shown NO-donors to reverse cognitive deficits induced by attenuation of cholinergic signaling, [51], [52], [53].
Amnestic memory deficit was induced by i.p. injection of either scopolamine (1 mg/kg) or L-NAME (50 mg/kg) 30 min prior to training in C57Bl/6 male mice. SERMs (2 mg/kg) were given 20 min prior to training and latency was assessed 24 h after training with animals being removed from the task if latency >300 s. All SERMs, except F-DMA, restored scopolamine-induced deficits in STPA in C57Bl/6 animals.
All experiments were performed either on 6–8 month old male C57B1/6 mice or eNOS(−/−) animals. Scopolamine (1 mg/kg) or L-NAME (50 mg/kg) were injected (i.p.) 30 min prior to training, while SERMs (2 mg/kg) were injected 20 min prior to training. Mice were placed in the light compartment of the light/dark box, and as soon as they entered the dark compartment, they received an electric shock (0.5 mA, 60 Hz for 2 seconds). This training was repeated until latency to enter the dark side reached 300 s. At 24 h post-training, animals were individually placed in the light compartment and the latency to enter the dark compartment was recorded with a 300 s cutoff. Details of this widely used assay of behavior have been discussed previously for NO-donor compounds [53], [54], [55].

[4] = assay type: in vivo; conditions: mouse, ip, 5 mg/kg
Procedure: All experiments were performed on 6–8 month male C57B1/6 mice (Charles River Laboratory) or eNOS(−/−) animals. Animals were injected (i.p.) at various time points before sacrifice at the doses specified. After euthanasia via CO2, plasma was collected, and cortices and hippocampi were collected after PBS perfusion and stored at −80°C. Tissue samples were weighed and extracted with methanol. Plasma samples were extracted with cold acetonitrile. Quantitative analysis of drug concentrations in plasma and brain used internal standards spiked into plasma and brain homogenates before liquid extraction with acetonitrile or methanol, and separation and measurement was performed with LC-MS/MS tandem mass spectrometry. The supernatant (deproteinized) was analyzed by chemiluminescence with SIEVERS 280i nitric oxide analyzer.
Figure S3: SERM bioavailability in plasma and CNS of WT and eNOS (-/-) mice. […] (n=4).

ERα = target: T1, ERα (Homo sapiens, UniProt P03372); test: ER binding affinity by competitive E2 displacement (ERα)
T1 sequence (P03372 1-595): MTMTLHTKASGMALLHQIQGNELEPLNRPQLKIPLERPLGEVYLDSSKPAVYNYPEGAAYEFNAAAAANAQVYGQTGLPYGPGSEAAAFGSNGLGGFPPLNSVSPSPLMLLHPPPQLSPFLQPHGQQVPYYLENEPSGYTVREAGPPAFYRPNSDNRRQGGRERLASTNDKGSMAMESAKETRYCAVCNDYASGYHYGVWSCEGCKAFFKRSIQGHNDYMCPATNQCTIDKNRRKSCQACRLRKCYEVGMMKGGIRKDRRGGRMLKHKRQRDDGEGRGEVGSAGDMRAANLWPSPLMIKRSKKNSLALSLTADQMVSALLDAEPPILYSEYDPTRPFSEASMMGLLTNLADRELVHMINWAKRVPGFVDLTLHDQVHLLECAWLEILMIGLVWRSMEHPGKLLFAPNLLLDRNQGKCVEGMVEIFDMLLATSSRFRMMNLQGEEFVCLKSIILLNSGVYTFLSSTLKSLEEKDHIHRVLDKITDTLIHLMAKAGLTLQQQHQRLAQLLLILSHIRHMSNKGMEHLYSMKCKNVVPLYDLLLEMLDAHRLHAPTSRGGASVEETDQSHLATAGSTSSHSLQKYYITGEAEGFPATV
Procedure: ER binding affinity was measured by competitive E2 displacement as previously described.

Structure (SMILES)	IC50 [1]	neuroprotection with G15 [2]	neuroprotection with L-NAME [2]	neuroprotection with LY294002 [2]	neuroprotection with pertussis toxin [2]	neuroprotection (cell survival by MTT) [2]	reversal of scopolamine-induced memory deficit (STPA latency) ([3]; C57Bl/6 male mice)	reversal of scopolamine-induced memory deficit in eNOS KO mice (STPA) [3]	bioavailability in plasma and CNS ([4]; in vivo)	blood brain barrier permeability [4]	IC50 (ERα)	neuroprotection with ICI 182780 ([2]; 100 nM SERM + ICI 182780 100 nM, added 45 min prior to OGD)	reversal of L-NAME-induced cognitive deficit (STPA latency) ([3]; C57Bl/6 male mice, L-NAME 50 mg/kg i.p.)
Oc1ccc(-c2sc3cc(O)ccc3c2Oc2ccc(OCCN3CCCCC3)cc2)cc1 [DMA, desmethylarzoxifene]	0.1 ± 0.1 nM	blocked the neuroprotective activity	did not	attenuated neuroprotective activity	blocked the neuroprotective activity	robust neuroprotection	complete reversal of the memory deficit	not influenced by treatment with DMA	substantial bioavailability with preferential retention in the hippocampus up to 2 h after administration	substantial blood brain barrier permeability	–	–	–
O=[N+]([O-])OCCCC1CCN(CCOc2ccc(Oc3c(-c4ccc(O)cc4)sc4cc(O)ccc34)cc2)CC1 [NO-DMA, 3-(1-(2-(4-(6-hydroxy-2-(4-ydroxyphenyl)benzo[b]thiophen-3-yloxy)phenoxy)ethyl)piperidin-4-yl)propyl nitrate]	3.9 ± 1.3 nM	blocked the neuroprotective activity	did not	attenuated neuroprotective activity	blocked the neuroprotective activity	robust neuroprotection identical to DMA	complete reversal of the memory deficit	significantly improved memory	–	–	21.4 ± 6.7 nM	did not block this effect	reversed by NO-DMA
